Test results reported in patent US20110028383A1, “Activated Forms Of Notch And Methods Based Thereon” (priority 1997, published 2011).
“Also recorded” adds a separate entry of the source.

How the values were obtained:
[1] = system: Drosophila Notch N^EC/N^TM heterodimer; experiment: Tethering of N^EC to N^TM in Notch expressing S2 cells (supernatant Western blot, sucrose density centrifugation); assay type: cell-based; conditions: for dissociation of N^EC and N^TM: calcium ion chelators
Description: Briefly, Drosophila S2 cells were induced to express Notch with the addition of 0.7 mM CuSO4 for 16 hours; Notch expression was under the control of the metallothionien promoter (Fehon et al., 1990, Cell 61:523-534). The cells were washed once with 20 mM Tris-HCl, 150 mM NaCl, 2 mM CaCl2 (TBS/Ca^2+) and were resuspended in TBS/Ca^2+ or in 20 mM Tris-HCl, 150 mM NaCl. 2 mM EDTA (TBS/EDTA) and incubated for one hour at room temperature under slow rocking. The cells were centrifuged and pelleted and the supernatants were collected for SDS-PAGE and Western blot analysis. The blot was probed with a monoclonal antibody directed to the extracellular domain of Notch, specifically against EGF-like repeats 5-7 of Drosophila Notch (clone C461.3B). This monoclonal was detected using goat anti-mouse horseradish peroxidase secondary antibody and chemiluminescent substrate.
The extracts were sedimented through a 5-20% sucrose gradient in the above-respective buffers (without the protease inhibitors) in a Beckman SW50.1 rotor at 34,000 rpm for 16 hours at 4° C. Fractions were collected and precipitated with 10% trichloroacetic acid. The protein pellets were resuspended in SDS-PAGE sample buffer and analyzed by SDS-PAGE and Western blotting. Blots were probed with a mixture of monoclonal antibodies C461.3B and 9C6 (directed against the intracellular domain of Notch) and detected as described above.

[2] = system: human Notch2; experiment: Pulse chase labeling of Notch2 processing in SJ-NB5 cells; assay type: cell-based; conditions: for breakdown (cleavage, processing) of full-length Notch: [35S] pulse 20 min and chase at 37° C., immunoprecipitated by PGHN, Brefeldin A 10 μg/ml; for appearance of N^EC: pulse labeling
Description: SJ-NB5 cells were grown on 60 mm petri dishes until ˜80% confluent, washed once with PBS, and then incubated in methionine and cysteine free DMEM medium for 1 hr. 100 μCi^35S-translabled Met-Cys (ICN) was added to each plate, pulsed at 37° C. for 20 minutes, and chased for varying times and temperatures. The chase began by adding 2× volume complete medium plus 100 μg/ml cold methionine and cysteine to the plates. For Brefeldin A samples, Brefeldin A was maintained at a final concentration of 10 μg/ml in starvation medium as well as in both pulse and chase. Cells were washed with cold PBS and lysed in lysis buffer (Zagouras et al., 1995, Proc. Natl. Acad. Sci. USA 92:6414-6418) containing 1 mM Pefabloc SC, 0.7 μg/mlpepstatin A, and 0.5 μg/ml leupeptin. Cell lysates were centrifuged at 14,000 rpm for 5 minutes. The supernatants were transferred to fresh tubes and pre-cleared by incubating with 5 μl normal rabbit serum and 50 μl 10% protein A-sephrose CL-4B (Pharmacia LKB) for 1 hr at 4° C. The beads were pelleted by centrifugation and the supernatants were divided into two equal aliquots. One aliquot was immunoprecipitated by incubating with rabbit polyclonal anti-human Notch2 antibody PGHN and 50 μl protein A-sephrose CL-4B for 2-3 hrs or overnight at 4° C. The other aliquot was immunoprecipitated by normal rabbit serum as control. The beads were washed three times in RIPA buffer B (150 mM NaCl, 1% NP40, 0.5% DOC, 0.1% SDS, 50 mM Tris, pH 7.5); washed once in 50 mM Tris-Cl, 150 mM NaCl, pH 7.5; resuspended in 50 μl SDS-sample buffer; boiled; and subjected to a 3-15% gradient SDS-PAGE. The gel was fixed in 25% iso-propanol, 10% acetic acid for 30 minutes, soaked in Amplify™ (Amersham) for 15-30 minutes, dried, and exposed to X-ray film at −70° C.
In an attempt to determine the cellular compartment where Notch is cleaved, pulse labeling analyses were carried out in the presence of drugs that are known to interfere with cellular trafficking.

[3] = system: Notch/Delta; experiment: Co-immunoprecipitation of N^TM with Delta antibodies after Notch/Delta cell aggregation; assay type: cell-based, Drosophila; conditions: aggregation disrupted by depleting calcium from the medium; data not shown
Description: Human neuroblastoma (SJ-NB5) cells were grown at 37° C. in an atmosphere of 5% CO2/95% air, in RPMI (Gibco-BRL, Grand Island, N.Y.) supplemented with 10% fetal bovine serum (Gibco BRL, Grand Island, N.Y.), 2 mM L-Glutamine (ICN Biomedicals, Inc., Costa Mesa, Calif.), 100 μg/ml penicillin, and 100 μg/ml streptomycin (ICN Biomedicals, Inc., Costa Mesa, Calif.). Cells were dissociated using phosphate buffered saline (PBS) with 0.25% trypsin and 0.03% EDTA (J. T. Baker, Inc., Phillipsburg, N.J.), and subcultured at ratios of 1:3 to 1:10. HaCat Cells (cultured human keratinocytes) were a gift from Dr. Michael Reiss (Yale University). Aggregation experiments and the maintenance of Drosophila S2 and KC cells were as described in Fehon et al., 1990, Cell 61:523-534.
The biological significance of the heterodimeric Notch form would be questionable if it could not bind ligands. […] If the heterodimeric form interacts with Delta after aggregation then the 110 kd N^TM fragment should co-immunoprecipitate using Delta antibodies.

Compound: O[C@H](CS)[C@H](O)CS (racemic) [dithiothreitol (DTT), dithiothreitol]
- sensitivity of the N^EC/N^TM interaction to reducing agents [1]: sensitive

Compound: C[C@H]1CCC/C=C/[C@@H]2C[C@H](O)C[C@H]2[C@H](O)/C=C/C(=O)O1 [Brefeldin A]
- breakdown (cleavage, processing) of full-length Notch [2]: effectively blocks the breakdown of full-length Notch; also recorded: blocked; also recorded: inhibit the cleavage of Notch
- appearance of N^EC [2]: is inhibited

Compound: O=C(O)CN(CCN(CC(=O)O)CC(=O)O)CC(=O)O [EDTA]
- N^EC in the supernatant of Notch expressing S2 cells ([1]; 2 mM EDTA, Tris-HCl saline buffer, one hour at room temperature, Western blot): N^EC is present in the supernatant
- sedimentation of N^EC and N^TM in sucrose density centrifugation ([1]; S2 cell extracts, TBS/EDTA with 1% Triton X-100, 5-20% sucrose gradient): sediment separately
- dissociation of N^EC and N^TM [1]: dissociate

Compound: O=C(O)CN(CCOCCOCCN(CC(=O)O)CC(=O)O)CC(=O)O [EGTA]
- precipitation of N^TM by Delta antibodies [3]: fail to efficiently precipitate N^TM
- dissociation of N^EC and N^TM [1]: dissociate

Compound: CCN(CC)CCCC(C)Nc1ccnc2cc(Cl)ccc12 (stereo not shown) [chloraquinone]
- breakdown (cleavage, processing) of full-length Notch [2]: do not affect processing
- appearance of N^EC [2]: not inhibited

Compound: CC[C@@]1([C@@H]2O[C@@H]([C@H]3O[C@@](O)(CO)[C@H](C)C[C@@H]3C)C[C@@H]2C)CC[C@H]([C@]2(C)CC[C@]3(C[C@H](O)[C@@H](C)[C@@H]([C@@H](C)[C@@H](OC)[C@H](C)C(=O)O)O3)O2)O1 [monensin]
- breakdown (cleavage, processing) of full-length Notch [2]: do not affect processing
- appearance of N^EC [2]: not inhibited

Compound: OCCS [β-mercaptoethanol]
- sensitivity of the N^EC/N^TM interaction to reducing agents [1]: sensitive
